Assay results published in patent publication US5646014A, “Peptide, antibacterial agent, peptide gene, recombinant DNA and method for preparing the peptide” (Agriculture, Forestry and Fisheries Technical Information …, priority 1994, dated 1997).

Tests used:
Type in all cases: cell-based
[1] = tested on: Staphylococcus xylosus IAM1312; test: Growth inhibition zone on agarose plate (Test Example 2); details: 2 μl of 50 μM solution per well, NB plate, no sodium chloride, 2.0 mm = no zone
Procedure: (§1) The antibacterial activity of the moricin obtained in Example 1 against various bacteria was examined based on the method described in Nature, 292:246 (1981).
(§2) NB plate medium containing 0.8% agarose (optionally, sodium chloride was added thereto to give a concentration of 150 mM) was used.
(§3) 50 μM moricin solution was prepared. 2 μl of this solution was added to each well of a plate medium into which a test bacterium had been inoculated. The plate was incubated at 30° C. overnight and then diameters of the growth inhibition zones formed were measured. As a control, cecropin B1 was used. Incidentally, the diameter of the well was 2.0 mm.

[2] = tested on: Pseudomonas fluorescens IAM1179; test: as above; details: 2 μl of 50 μM solution per well, NB plate, no sodium chloride, 2.0 mm = no zone
Procedure: as §1, §2, §3

[3] = tested on: Staphylococcus aureus ATCC6538P; test: as above; details: 2 μl of 50 μM solution per well, 2.0 mm = no zone
Procedure: as §1, §2, §3

[4] = tested on: Staphylococcus epidermidis IF012993; test: as above; details: 2 μl of 50 μM solution per well, NB plate, no sodium chloride, 2.0 mm = no zone
Procedure: as §1, §2, §3

[5] = tested on: Pseudomonas aeruginosa IAM1514; test: as above; details: 2 μl of 50 μM solution per well, NB plate, no sodium chloride, 2.0 mm = no zone
Procedure: as §1, §2, §3

[6] = tested on: Bacillus subtilis IAM1107; test: as above; details: 2 μl of 50 μM solution per well, NB plate, no sodium chloride, 2.0 mm = no zone
Procedure: as §1, §2, §3

[7] = tested on: Staphylococcus aureus IF03083; test: as above; details: 2 μl of 50 μM solution per well, NB plate, no sodium chloride, 2.0 mm = no zone
Procedure: as §1, §2, §3

Bacillus cereus IF03457 [8] = test: as above; details: 2 μl of 50 μM solution per well, NB plate, no sodium chloride, 2.0 mm = no zone
Procedure: as §1, §2, §3

Escherichia coli JM109 [9] = test: as above; details: 2 μl of 50 μM solution per well, NB plate, no sodium chloride, well 2.0 mm, 2.0 mm = no zone
Procedure: as §1, §2, §3

[10] = tested on: Bacillus megaterium IAM1030; test: as above; details: 2 μl of 50 μM solution per well, NB plate, no sodium chloride, 2.0 mm = no zone
Procedure: as §1, §2, §3

Bacillus cereus IF03457 [11] = test: Minimum inhibitory concentration (M.I.C.), liquid medium; details: NB medium, 30° C. for 20 hours
Procedure: (§4) In order to examine the antibacterial activity of the moricin obtained in Example 1 against various bacteria, the mimimum inhibitory concentration (M.I.C.) of moricin was measured based on the method described in Eur. J. Biochem., 187:381-386 (1990).
(§5) When E. coli and Staphylococcus aureus subsp. aureus were used as test bacteria, brain heart infusion medium (BHI medium, Difco) was used. When Bacillus cereus was used as a test bacterium, nutrient broth medium (NB medium, Difco) was used.
(§6) To a test medium suspending a test bacterium at a concentration of 4×10^4 cells/ml, an equal volume of the same medium containing moricin at varied concentrations was added and incubated at 30° C. for 20 hours. After the incubation, an equal volume of 6% formalin was added thereto to give a two-fold dilution. Then, the degree of cell proliferation was examined by measuring the absorbance at 650 nm. As a control, cecropin B1 [Comp. Biochem. Physiol. 95B:551 (1990)] was used which is a known antibacterial peptide derived from silkworm.

Escherichia coli JM109 [12] = test: as above; details: BHI medium, 30° C. for 20 hours
Procedure: as §4, §5, §6

[13] = tested on: Staphylococcus aureus subsp. aureus ATCC 6538P; test: as above; details: BHI medium, 30° C. for 20 hours
Procedure: as §4, §5, §6

[14] = tested on: Streptococcus pyogenes ATCC21547; test: Growth inhibition zone on agarose plate (Test Example 2); details: 2 μl of 50 μM solution per well, BHI plate, no sodium chloride, 2.0 mm = no zone
Procedure: as §1
When Streptococcus pyogenes was used as a test bacterium, 0.8% agarose-containing BHI plate medium was used.
as §3

Cecropin B1: known antibacterial peptide derived from silkworm, used as a control (RWKIFKKIEKMGRNIRDGIVKAGPAIEVLGSAKAI; UniProt P04142 27-61, looked up)
Diameter of the Inhibition Zone [1]: 2.0 mm
Diameter of the Inhibition Zone [2]: 8.9 mm
Diameter of the Inhibition Zone ([3]; NB plate with 150 mM sodium chloride): 2.3 mm
Diameter of the Inhibition Zone ([3]; NB plate, no sodium chloride): 6.9 mm
Diameter of the Inhibition Zone [4]: 9.0 mm
Diameter of the Inhibition Zone [5]: 7.9 mm
Diameter of the Inhibition Zone [6]: 7.8 mm
Diameter of the Inhibition Zone [7]: 2.0 mm
Diameter of the Inhibition Zone (Bacillus cereus IF03457 [8]): 2.0 mm
Diameter of the Inhibition Zone (Escherichia coli JM109 [9]): 10.1 mm
Diameter of the Inhibition Zone [10]: 10.9 mm
M.I.C. (Bacillus cereus IF03457 [11]): > 16 µg/mL
M.I.C. (Escherichia coli JM109 [12]): < 1 µg/mL
M.I.C. [13]: > 16 µg/mL
Diameter of the Inhibition Zone [14]: 2.0 mm
